Earlier results, collected in patent US20130296430A1, “COMPOSITIONS AND METHODS FOR TREATING AUTISM AND AUTISM SPECTRUM DISORDER” (priority 2012, published 2013).

Conditions: doses less than NAC; effects counter to those reported for NAC; Samstrand et al 1999; cited from earlier work

In the case of `CC(=O)N[C@@H](CSSC[C@H](NC(C)=O)C(=O)O)C(=O)O` [oxidized form of NAC], the “bioactive dose relative to NAC” value is given as 10-100 fold.
